In patent US9487553B2, “Boranophosphate analogues of cyclic nucleotides” (BIOLOG LIFE SCIENCE INSTITUTE FORSCHUNGSLABOR UND …, priority 2011, dated 2016):

What was measured:
[1] = Degradation Example 1: oxidation with hydrogen peroxide, monitored by HPLC; type: physicochemical; conditions: after further addition of 10 μl of 30% H2O2, two hours at RT
Source text: In order to check out the stability of the boranophosphates described in this invention towards oxidising conditions in comparison to the corresponding phosphorothioates, 0.1 μmol of the sodium salts of each, Rp-8-bromoadenosine-3′,5′-cyclic boranophosphate (Rp-8-Br-cAMPB, example 1), Sp-8-bromoadenosine-3′,5′-cyclic boranophosphate (Sp-8-Br-cAMPB, example 2), Rp-8-bromoadenosine-3′,5′-cyclic phosphorothioate (Rp-8-Br-cAMPS, Biolog) and Sp-8-bromoadenosine-3′,5′-cyclic phosphorothioate (Sp-8-Br-cAMPS, Biolog) were dissolved in 100 μl of eluent and the mixture was analyzed by HPLC (RP-18, 11% acetonitrile, 20 mM triethylammonium formate buffer, pH 6.1, 1.5 ml/min, UV 258 nm). The following elution profile was recorded: Rp-8-Br-cAMPS (5:13 min.)<Sp-8-Br-cAMPS (7:23 min.)<Sp-8-Br-cAMPB (9:13 min.)<Rp-8-Br-cAMPB ([…].).
Subsequently, aqueous hydrogen peroxide (Merck) was added in small portions while the stability of the four compounds was permanently monitored over time.
10 μl of H2O2 (0.3%) as well as 10 μl of 3% H2O2 were added to no effect.

[2] = target: protein kinase A type I alpha holoenzyme (Homo sapiens, UniProt P10644); test: Standard photometric (Cook) assay with protein kinase A type I alpha holoenzyme; type: biochemical; conditions: holoenzyme RIα
Source text: In a first experiment, the biological activity of the Rp- and Sp-isomer of 8-bromoadenosine-3′,5′-cyclic boranophosphate (examples 1 and 2) has been tested with the holoenzyme of protein kinase A type I alpha (FIGS. 3 and 4) using a standard photometric assay (Cook, P. F.; Neville, M. E., Jr.; Vrana, K. E.; Hartl, F. T. and Roskoski, R., Jr., Biochemistry 21, 5794-5799 (1982)).
As a control, two boranophosphate analogues with a 2′-O-methyl modification (Rp-2′-O-Me-cAMPB and Sp-2′-O-Me-cAMPB, examples 7 & 8) have been tested by the same type of assay with protein kinase A type I alpha as well.
FIG. 5 depicts the activity overview of four different cyclic boranophosphate analogues with protein kinase A type I alpha holoenzyme. 9108: Sp-2′-O-Me-cAMPB; 9109: Rp-2′-O-Me-cAMPB; 9110: Sp-8-Br-cAMPB; 9111: Rp-8-Br-cAMPB; controls: B 001: Rp-8-Br-cAMPS. Control: cAMP. “Cook Assay” with Holoenzyme RIα.

protein kinase G I α = target: T1, protein kinase G I α (Homo sapiens, UniProt Q13976); test: Protein kinase G I alpha activation, phosphotransferyl assay; type: biochemical; conditions: 10 nM, 100 nM and 1 μM
T1 sequence (Q13976 1-671): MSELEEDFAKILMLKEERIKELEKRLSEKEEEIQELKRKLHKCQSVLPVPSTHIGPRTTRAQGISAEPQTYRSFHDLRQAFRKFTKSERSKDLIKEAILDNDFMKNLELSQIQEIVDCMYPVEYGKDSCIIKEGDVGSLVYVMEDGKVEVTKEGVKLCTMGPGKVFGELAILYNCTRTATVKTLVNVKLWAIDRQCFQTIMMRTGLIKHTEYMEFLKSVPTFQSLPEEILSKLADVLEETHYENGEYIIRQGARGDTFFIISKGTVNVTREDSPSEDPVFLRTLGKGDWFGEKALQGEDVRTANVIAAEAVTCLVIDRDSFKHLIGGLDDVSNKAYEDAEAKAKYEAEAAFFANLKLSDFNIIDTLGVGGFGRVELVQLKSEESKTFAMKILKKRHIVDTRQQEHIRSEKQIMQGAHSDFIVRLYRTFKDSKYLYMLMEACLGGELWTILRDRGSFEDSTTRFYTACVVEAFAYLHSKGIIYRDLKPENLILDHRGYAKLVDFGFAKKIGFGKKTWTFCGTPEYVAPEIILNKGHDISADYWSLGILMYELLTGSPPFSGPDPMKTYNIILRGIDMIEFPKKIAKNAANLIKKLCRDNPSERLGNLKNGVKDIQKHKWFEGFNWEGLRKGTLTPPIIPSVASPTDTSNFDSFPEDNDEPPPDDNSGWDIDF
Source text: Next, the activity profile of some cyclic boranophosphates disclosed in this invention has also been investigated on protein kinase G I α (FIGS. 8 and 9). Potential activatory potential towards the enzyme has been determined by a standard phosphotransferyl assay protocol according to Dostmann et al. (Dostmann, W. R.; Nickl, C.; Thiel, S.; Tsigelny, I.; Frank, R.; and Tegge, W. J., Pharmacol. Ther., 82, 373-387 (1999). FIG. 8 depicts the activity (μmol×min^−1×mg^−1) overview of six different cyclic boranophosphate analogues with protein kinase G type I at 10 nM, 100 nM and 1 μM. BLG-9108: […]; BLG-9110: Sp-8-Br-cAMPB; BLG-9111: Rp-8-Br-cAMPB; BLG-9112: Sp-8-Br-cGMPB; BLG-9113: Rp-8-Br-cGMPB; control: cyclic GMP.

protein kinase A type I alpha holoenzyme, sequence (P10644 whole entry): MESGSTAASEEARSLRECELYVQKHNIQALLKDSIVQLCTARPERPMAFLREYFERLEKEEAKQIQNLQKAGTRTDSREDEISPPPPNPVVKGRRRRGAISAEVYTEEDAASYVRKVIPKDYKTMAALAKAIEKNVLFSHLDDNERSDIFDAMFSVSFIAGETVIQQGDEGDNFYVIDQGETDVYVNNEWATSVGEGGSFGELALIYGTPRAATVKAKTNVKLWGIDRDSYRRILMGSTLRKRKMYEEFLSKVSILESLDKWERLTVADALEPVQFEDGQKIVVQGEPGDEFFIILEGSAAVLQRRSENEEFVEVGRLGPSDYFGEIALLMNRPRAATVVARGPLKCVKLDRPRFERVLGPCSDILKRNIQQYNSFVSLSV

## 8-Bromoadenosine-3′,5′-cyclic boranophosphate, Rp-isomer [Rp-8-Br-cAMPB]
[1]
  HPLC signal area lost: 35%
[2]
  effect on protein kinase A type I alpha holoenzyme: agonistic property
Protein kinase G I α
  modulation of protein kinase G: as potent or even better as guanine related compounds

## 8-Bromoadenosine-3′,5′-cyclic boranophosphate, Sp-isomer [Sp-8-Br-cAMPB]
[1]
  HPLC signal area lost: 35%
[2]
  effect on protein kinase A type I alpha holoenzyme: inhibitory potential
Protein kinase G I α
  modulation of protein kinase G: as potent or even better as guanine related compounds
